Earlier results in patent publication US20070292407A1, “Methods of treatment for meconium aspiration syndrome” (The Board of Trustees Operating Michigan State University, priority 2005, published 2007).

Details: in vitro; Burke et al., J Pediatr Surg 2002

## CC(=O)N[C@@H](CS)C(=O)O [N-Acetylcysteine, N-acetyl-L-cysteine]
  reduction of meconium viscosity: significant reduction of meconium viscosity
